The structures appear in SMILES notation.

The values that follow come from US12065430B2, “Indazole compound or salt thereof” (TAIHO PHARMACEUTICAL CO., LTD., priority 2018, dated 2024).

In this experiment the target is G12C K-Ras4B (1-169) (Homo sapiens (Human), UniProt P01116, G12C). The experiment in a line: Test of compounds on whether to bind to KRASG12C (LC-MS compound binding rate). The settings on record: final compound concentration of 2 μM, 1 μM protein, 25° C. for 2 hours. The procedure: Test compounds were prepared in the form of a 10 mM DMSO solution.
K-Ras4B (1-169) and G12C K-Ras4B (1-169) proteins were mixed and diluted with a buffer (1×TBS, 0.1 mM TCEP) to prepare individual 1 μM protein solutions. A 10 mM test compound was diluted tenfold with DMSO to make a 1 mM solution, and then diluted fivefold with DMSO to make a 200 μM solution. The 200 μM solution was further diluted fivefold to make a 40 μM solution. When the final compound concentration was 10 μM, 1 μL of a 200 μM test compound was added to 19 μL of a 1 μM protein solution. When the final compound concentration was 2 μM, 1 μL of a 40 μM test compound was added to 19 μL of a 1 μM protein solution. The mixtures were stored in an incubator at 25° C. for 2 hours, and 80 μL of a 1×TBS solution containing 0.2% formic acid was added thereto to end the reaction, followed by LC-MS measurement. LC-MS measurement was performed using Xevo G2-S Q-Tof manufactured by Waters, and reverse-phase chromatography was performed with a desalting column. A mass spectrum of positive ions was obtained by electrospray. For a mass spectrum, a spectrum of a polyvalent ion was collectively converted to a molecular weight by using OpenLynx software by the MaxEnt technique, and a compound binding rate was obtained from the ratio of a signal intensity that corresponds to the molecular weight of a protein to a signal intensity that corresponds to the molecular weight of a compound binding to the protein.
By obtaining the compound binding rate for K-Ras4B (1-169) and the compound binding rate for G12C K-Ras4B (1-169) at the same time, information of the selectivity for G12C K-Ras4B (1-169) was obtained at the same time.
The test compounds were measured at their final compound concentration of 2 μM. […] Almost no compounds of the present invention binded to K-Ras4B (1-169). The “binding rate” (%) for each of K-Ras4B (1-169) and G12C K-Ras4B (1-169) refers to the ratio of the signal intensity of binded forms to the sum of the signal intensity of non-binded forms and the signal intensity of binded forms.
Take `C=CC(=O)N1CC(NC(=O)c2c(Cl)nc(CNc3n[nH]c4cc(Cl)c(C(C)(C)C)cc34)n2[C@@H]2CCN(C3COC3)C2)C1` [Example 121, (R)—N-(1-acryloylazetidin-3-yl)-2-(((5-(tert-butyl)-6-chloro-1H-indazol-3-yl)amino)methyl)-4-chloro-1-(1-(oxetan-3-yl)pyrrolidin-3-yl)-1H-imidazole-5-carboxamide]: the “binding rate for G12C K-Ras4B (1-169)” value is “A (a binding rate of 80% or more is rated “A,”)”.

For `[2H]C([2H])(Nc1n[nH]c2cc(Cl)c(C(C)(C)C)cc12)c1nc(C)c(C(=O)NC2CN(C(=O)C=C)C2)n1C` [Example 5, N-(1-acryloylazetidin-3-yl)-2-(((5-(tert-butyl)-6-chloro-1H-indazol-3-yl)amino)methyl-d2)-1,4-dimethyl-1H-imidazole-5-carboxamide], the “binding rate for G12C K-Ras4B (1-169)” value is recorded as “A (a binding rate of 80% or more is rated “A,”)”.

In the case of `C=CC(=O)N1CC(NC(=O)c2c(C)nc(CNc3n[nH]c4cc(Cl)c(C(C)(C)C)cc34)n2CC)C1` [Example 12, N-(1-acryloylazetidin-3-yl)-2-(((5-(tert-butyl)-6-chloro-1H-indazol-3-yl)amino)methyl)-1-ethyl-4-methyl-1H-imidazole-5-carboxamide], the “binding rate for G12C K-Ras4B (1-169)” value is “B (a binding rate of 60% or more and less than 80% is rated “B,”)”. As for `C=CC(=O)N1CC(NC(=O)c2ccc(CNc3n[nH]c4cc(Cl)c(C(C)(C)C)cc34)o2)C1` [Reference Example 2, N-(1-acryloylazetidin-3-yl)-5-(((5-(tert-butyl)-6-chloro-1H-indazol-3-yl)amino)methyl)furan-2-carboxamide, reference compound], the “binding rate for G12C K-Ras4B (1-169)” value is given as “E (a binding rate of less than 20% is rated “E.”)”. As for `C=CC(=O)N1CC(NC(=O)c2c(F)nc(CNc3n[nH]c4cc(Cl)c(C(C)(C)C)cc34)n2C(C)C)C1` [Example 34, N-(1-acryloylazetidin-3-yl)-2-(((5-(tert-butyl)-6-chloro-1H-indazol-3-yl)amino)methyl)-4-fluoro-1-isopropyl-1H-imidazole-5-carboxamide], the “binding rate for G12C K-Ras4B (1-169)” value was “A (a binding rate of 80% or more is rated “A,”)”. On to `C=CC(=O)N1CC(NC(=O)c2c(C(F)F)nc(CNc3n[nH]c4cc(Cl)c(C(C)(C)C)cc34)n2C2CCN(C)C2)C1` (stereo not shown) [Example 91, N-(1-acryloylazetidin-3-yl)-2-(((5-(tert-butyl)-6-chloro-1H-indazol-3-yl)amino)methyl)-4-(difluoromethyl)-1-(1-methylpyrrolidin-3-yl)-1H-imidazole-5-carboxamide], for which the “binding rate for G12C K-Ras4B (1-169)” value is listed as “A (a binding rate of 80% or more is rated “A,”)”. To `C=CC(=O)N1C[C@@H](C)[C@@H](NC(=O)c2c(C)nc(CNc3n[nH]c4cc(Cl)c(C(C)(C)C)cc34)n2C)C1` [Example 55, N-((3R,4R)-1-acryloyl-4-methylpyrrolidin-3-yl)-2-(((5-(tert-butyl)-6-chloro-1H-indazol-3-yl)amino)methyl)-1,4-dimethyl-1H-imidazole-5-carboxamide] belongs “A (a binding rate of 80% or more is rated “A,”)”; to `C=CC(=O)N1CC(NC(=O)c2c(C)nc(CNc3n[nH]c4cc(Cl)c(C(C)(C)C)cc34)n2C2CC2)C1` [Example 23, N-(1-acryloylazetidin-3-yl)-2-(((5-(tert-butyl)-6-chloro-1H-indazol-3-yl)amino)methyl)-1-cyclopropyl-4-methyl-1H-imidazole-5-carboxamide], “A (a binding rate of 80% or more is rated “A,”)”; to `C=CC(=O)N1CC(NC(=O)c2cnc(CNc3n[nH]c4cc(Cl)c(C(C)(C)C)cc34)s2)C1` [Example 8, N-(1-acryloylazetidin-3-yl)-2-(((5-(tert-butyl)-6-chloro-1H-indazol-3-yl)amino)methyl)thiazole-5-carboxamide], “B (a binding rate of 60% or more and less than 80% is rated “B,”)”.

As to `C=CC(=O)N1CC(NC(=O)c2c(F)nc(CNc3n[nH]c4cc(Cl)c(C(C)(C)C)cc34)n2C)C1` [Example 30, N-(1-acryloylazetidin-3-yl)-2-(((5-(tert-butyl)-6-chloro-1H-indazol-3-yl)amino)methyl)-4-fluoro-1-methyl-1H-imidazole-5-carboxamide], the “binding rate for G12C K-Ras4B (1-169)” value was “C (a binding rate of 40% or more and less than 60% is rated “C,”)”.

For `C=CC(=O)N1CC(NC(=O)c2c(Cl)nc(CNc3n[nH]c4cc(Cl)c(C(C)(C)C)cc34)n2CC(F)F)C1` [Example 100, N-(1-acryloylazetidin-3-yl)-2-(((5-(tert-butyl)-6-chloro-1H-indazol-3-yl)amino)methyl)-4-chloro-1-(2,2-difluoroethyl)-1H-imidazole-5-carboxamide], the “binding rate for G12C K-Ras4B (1-169)” value is given as “A (a binding rate of 80% or more is rated “A,”)”. To `C=CC(=O)N1C[C@@H](C)[C@@H](NC(=O)c2c(C(F)F)nc(CNc3n[nH]c4cc(Cl)c(C(C)(C)C)cc34)n2C)C1` [Example 71, N-((3R,4R)-1-acryloyl-4-methylpyrrolidin-3-yl)-2-(((5-(tert-butyl)-6-chloro-1H-indazol-3-yl)amino)methyl)-4-(difluoromethyl)-1-methyl-1H-imidazole-5-carboxamide] belongs “C (a binding rate of 40% or more and less than 60% is rated “C,”)”. On to `C=CC(=O)N1CC(NC(=O)c2c(Br)nc(CNc3n[nH]c4cc(Cl)c(C(C)(C)C)cc34)n2C)C1` [Example 27, N-(1-acryloylazetidin-3-yl)-4-bromo-2-(((5-(tert-butyl)-6-chloro-1H-indazol-3-yl)amino)methyl)-1-methyl-1H-imidazole-5-carboxamide], for which the “binding rate for G12C K-Ras4B (1-169)” value is “A (a binding rate of 80% or more is rated “A,”)”. Take `C=CC(=O)N1CC(NC(=O)c2sc(CNc3n[nH]c4cc(Cl)c(C(C)(C)C)cc34)nc2C)C1` [Example 2, N-(1-acryloylazetidin-3-yl)-2-(((5-(tert-butyl)-6-chloro-1H-indazol-3-yl)amino)methyl)-4-methylthiazole-5-carboxamide]: the “binding rate for G12C K-Ras4B (1-169)” value was “B (a binding rate of 60% or more and less than 80% is rated “B,”)”. To `C=CC(=O)N1CC(NC(=O)c2c(Cl)nc(CNc3n[nH]c4cc(Cl)c(C(C)(C)C)cc34)n2[C@@H]2CCN(CCOC)C2)C1` [Example 119, (R)—N-(1-acryloylazetidin-3-yl)-2-(((5-(tert-butyl)-6-chloro-1H-indazol-3-yl)amino)methyl)-4-chloro-1-(1-(2-methoxyethyl)pyrrolidin-3-yl)-1H-imidazole-5-carboxamide] belongs “B (a binding rate of 60% or more and less than 80% is rated “B,”)”; to `C=CC(=O)N1CCN(C(=O)c2c(C)nc(CNc3n[nH]c4cc(Cl)c(C(C)(C)C)cc34)n2C)CC1` [Example 50, 1-(4-(2-(((5-(Tert-butyl)-6-chloro-1H-indazol-3-yl)amino)methyl)-1,4-dimethyl-1H-imidazole-5-carbonyl)piperazin-1-yl)prop-2-en-1-one], “C (a binding rate of 40% or more and less than 60% is rated “C,”)”.

With `C=CC(=O)N1CC(NC(=O)c2c(C(F)F)nc(CNc3n[nH]c4cc(Cl)c(C(C)(C)C)cc34)n2C2CCN(C(C)=O)C2)C1` (stereo not shown) [Example 96, 1-(1-Acetylpyrrolidin-3-yl)-N-(1-acryloylazetidin-3-yl)-2-(((5-(tert-butyl)-6-chloro-1H-indazol-3-yl)amino)methyl)-4-(difluoromethyl)-1H-imidazole-5-carboxamide], the “binding rate for G12C K-Ras4B (1-169)” value is “A (a binding rate of 80% or more is rated “A,”)”. As for `C=CC(=O)N(C)C1CN(C(=O)c2c(C)nc(CNc3n[nH]c4cc(Cl)c(C(C)(C)C)cc34)n2C)C1` [Example 51, N-(1-(2-(((5-(tert-butyl)-6-chloro-1H-indazol-3-yl)amino)methyl)-1,4-dimethyl-1H-imidazole-5-carbonyl)azetidin-3-yl)-N-methylacrylamide], the “binding rate for G12C K-Ras4B (1-169)” value was “B (a binding rate of 60% or more and less than 80% is rated “B,”)”. To `C=CC(=O)NC1CN(C(=O)c2c(C)nc(CNc3n[nH]c4cc(Cl)c(C(C)(C)C)cc34)n2C)C1` [Example 46, N-(1-(2-(((5-(tert-butyl)-6-chloro-1H-indazol-3-yl)amino)methyl)-1,4-dimethyl-1H-imidazole-5-carbonyl)azetidin-3-yl) acrylamide] belongs “B (a binding rate of 60% or more and less than 80% is rated “B,”)”.
